From US20080318938A1, “METHODS FOR TREATING ABERRANT CELL PROLIFERATION DISORDERS” (priority 2007, published 2008)

Columns and labels:
[1] = TA4-1A in plasma, brain and tumor of HCT116 tumor-bearing mice; type: in vivo; details: for Share of the therapeutic agent in brain / Share of the therapeutic agent in plasma / Share of the therapeutic agent in tumor: mice, 12.5 mg/kg IV daily 14 days, wash-out, last dose day 19
Text: In vivo experiment protocols were approved by the Animal Use and Care Committee. Female NCr nu/nu mice were purchased from Taconic Farms and group housed in a ventilated rack system on a 12/12 light cycle. All housing materials and water were autoclaved prior to use. The mice were fed ad libitum with gamma-irradiated laboratory chow and acidified water. Animals were handled under laminar-flow hoods. Animals were inoculated subcutaneously in the right flank with 5×10̂6 HCT116 cells. Tumors were monitored twice weekly and then daily as they approached the appropriate size for study. On Day 1 of the study, the animals were randomized into n=3 treatment groups with group average tumor sizes of 109 mm^3.
(§1) where w=width and 1=length in mm of the tumor. Tumor weight was estimated with the assumption that 1 mg is equivalent to 1 mm^3 of tumor volume. Mice were daily dosed with compound TA4-1A at 12.5 mg/kg (IV) during 14 days. A wash-out period ensued for four days with no dosing, and the last dose was administered after the wash-out period (day 19) at 12.5 mg/kg. At one, two and twenty-four hour time points plasma, brain and tumor samples were collected from terminal mice and frozen. It was determined that the tumor contained 35%, plasma contained 64% and brain contained 1% of the therapeutic agent after the one hour time point, and the tumor contained 74%, plasma contained 24% and brain contained 2% of the therapeutic agent after the two hour time point. At the 24 hour time point, tumor contained 17%, plasma contained 49% and brain contained 34% of the therapeutic agent. After an eight hour exposure to the agent in female and male rats, approximately 3-4% of the agent was available in the brain as compared to the amount in plasma. […] Examples of cell lines and particular brain cancers are described herein.

[2] = TA4-1A in brain compared to plasma in rats; type: in vivo; details: both sexes, rat, female and male rats, eight hour exposure, read-out: Agent available in the brain as compared to the amount in plasma
Method: as §1

Share of the therapeutic agent in brain ([1]; 24 hour): 34%
Share of the therapeutic agent in plasma ([1]; 24 hour): 49%
Share of the therapeutic agent in tumor ([1]; 24 hour): 17%
Share of the therapeutic agent in brain ([1]; one hour): 1%
Share of the therapeutic agent in plasma ([1]; one hour): 64%
Share of the therapeutic agent in tumor ([1]; one hour): 35%
Share of the therapeutic agent in brain ([1]; two hour): 2%
Share of the therapeutic agent in plasma ([1]; two hour): 24%
Share of the therapeutic agent in tumor ([1]; two hour): 74%
Kp at 8 h [2]: 0.03 to 0.04
SMILES: CC(=O)N1CCN(c2nc3c(cc2F)c(=O)c(C(=O)NCCN2CCCC2)c2n(C)c4ccccc4n32)CC1 [TA4-1A]
Blood-brain barrier permeation ([1]; mice and rats, conclusion from brain levels): can permeate the blood-brain barrier to some extent
